Laboratory results as given in patent US20010011146A1, “NEUROPROTECTIVE COMPOUNDS AND USES THEREOF” (priority 1997, published 2001).
“Also recorded” adds a separate entry of the source. Like-named read-outs stand apart in the source and are kept apart here. Blank lines part the entries; values can stand above or below the compound they belong to.

How the values were obtained:
CA1 hippocampal neurons [1] = assay: Four-vessel occlusion (4-VO) ischemia, CA1 neuronal density measurement; assay type: in vivo, male Wister rats
Description: (§1) Four-vessel occlusion (“4-VO”) ischemia. All procedures regarding animals were in compliance with AALAC guidelines set forth in the PHS animal “Guide in the Care and Use of Laboratory Animals”. Animals (male Wister rats, 200-250 gr, Hill Top, Scottsdale) were anesthetized with a mixture of halothane (1%), oxygen, and nitrogen, and surgically prepared for 4-VO according to the method described by Pulsinell, W. A., et al., “Regional Cerebral Blood Flow and Glucose Metabolism Following Transient Forebrain Ischemia,” Ann. Neurol., 11:499-502 (1982), which is hereby incorporated by reference. Surgical procedures included placing reversible clasps around the common carotid arteries and placing a suture around the neck muscles to control collateral blood flow to the brain. Food was withheld overnight, but water was freely available. On the following day, 10 minutes of 4-VO ischemia was induced by tightening the clasps around the common carotid arteries and the suture. In order to minimize variability, the following criteria was set: loss of righting reflex and bilateral pupil dilation during the entire ischemic period, and 20±5 minutes of postischemic coma after 10 minutes of ischemia. Only animals that meet these criteria were included in the study. The body temperature of all animals was kept at 37.5±0.5° C. by a thermocouple-regulated heating lamp during ischemia and reperfusion until the animals regained consciousness and established thermo-homeostasis.
(§2) NAMDA administration. Animals subject to 10 minutes of ischemia randomly were divided into 4 groups. Animals received one of the following triple intraperitoneal injections: i) saline at 0, 0.5, and 2 hours, ii) NAMDA (10 mg/kg) at 0, 0.5, and 2 hours, iii) NAMDA at 1, 1.5, and 3 hours, and iv) NAMDA at 2, 2.5, and 4 hours of cerebral reperfusion. To examine whether NAMDA caused hypothermia, the animals' body temperatures were recorded for up to the first 4 hours of cerebral reperfusion. Sham-operated animals that underwent surgery and carotid manipulation were used as non-ischemic controls.
Tissue preparation. […] Some sections were […] on slides and stained with cresyl violet to measure neuronal density. […]
Cell density measurement. […] Neurons were counted in the frame if part or all of the nucleus was within the frame and not in contact with the left or bottom border of the frame. […] The number of neurons counted were divided by the total volume sampled to generate the density of neurons in CA1. Mean neuron density was calculated for the left and right hippocampus (side) and for the anterior and posterior regions for each animal. […]

[2] = Body temperature recording during cerebral reperfusion (4-VO ischemic animals); assay type: in vivo, male Wister rats; details: for Temperature recording during cerebral reperfusion: mean ± s.e.m., in °C (unit assumed)
Description: as §1, §2
The animals' body temperature was kept at 37.5±0.5° C. during ischemia and first half hour of cerebral reperfusion when animals were typically stayed in postischemic coma. Temperatures were recorded soon after animals regained consciousness and recorded for up to 4 hours of cerebral reperfusion (Table 1).

[3] = tested on: NADPH-diaphorase activity in CA1 hippocampus; assay: NADPH-diaphorase histochemistry in postischemic CA1 hippocampus; assay type: in vivo, male Wister rats; details: triple i.p. injection 10 mg/kg during reperfusion
Method: as §2
Tissue preparation. Animals were anesthetized with sodium pentobarbital (120 mg/kg) and perfused transcardially with saline containing 0.5% sodium nitrite and 10 U/ml heparin sulfate followed by 4% cold formaldehyde in 0.1 M sodium phosphate buffer (PB, pH 7.2). The brains were further postfixed for 2 hours and stored in a 30% sucrose solution overnight. Fixed brains were sectioned at 30 μm on a sliding microtome. For each animal, the dorsal hippocampus between bregma −2.5 mm and −4.0 mm was sampled. Some sections were […] on slides and stained with cresyl violet to measure neuronal density. Others were used for free floating NADPH-diaphorase histochemistry.
NADPH-Diaphorase histochemistry. […]

BV-2 microglia cells = assay: Nitrite measurement (Griess reaction) in BV-2 microglia cells; assay type: cell-based, murine; details: 6 hours, 0.05-5 mM
Method: Nitrite measurement on microylial cell. To measure nitrite level, a NO oxidative metabolite, murine BV-2 cells, were used. […] The cells were grown and maintained in Dulbeccos Modified Eagle medium (“DMEM”, Gibco, Gaithersburg, Md.) supplemented with 10% fetal calf serum and penicillin/streptomycine at 37° C. in a humidified incubator under 5% CO2. BV-2 microglia cells were cultured and grown in 24 well culture plates and treated for 6 hours with 0. 0.05, 0.5, 2, or 5 mM or NAMDA either in the presence or absence of lipopolysaccharide (LPS, 0.2 μg/ml).
After the treatment, 200 μl aliquots of cell supernatant from each well were mixed with 100 μl of Griess reagent (1 % sulphanilamide, 0.1% naphthylethylenediamine dihydrochloride, 2.5% H3PO4) in 96 well microtiter plates. The mixtures were incubated for 10 minutes to form a chromophore and the absorbance was read at 540 nm using a plate reader. The amount of nitrite accumulation from media was determined against a standard curve generated by a known concentration of […]. After removal of the supernatant for the nitrite assay, cells were immediately washed with 0.1M PB, fixed with 4% formaldehyde for 30 minutes, and washed with 0.1M PB for 5 minutes. NADPH-diaphorase histochemical staining was performed as described above. […]

BV-2 cells = assay: Cell number count by tryphan exclusion in BV-2 cells; assay type: cell-based, murine; details: with or without LPS; end of 6 hours treatment; up to 5 mM
[4] = tested on: NADPH-diaphorase activity in BV-2 cells; assay: NADPH-diaphorase histochemical staining in BV-2 cells; assay type: cell-based, murine; details: 5 mM
Method: NADPH-Diaphorase histochemistry. The histochemical staining was performed according to the method described by Vincent, et al., “Histochemical Mapping of Nitric Oxide Synthase in the Rat Brain,” Neuroscience, 46:755-784 (1992), which is hereby incorporated by reference). Sections containing dorsal hippocampus are washed twice in 0.1 M phosphate buffer (“PB”) and then processed for NADPH-diaphorase histochemistry. To establish a temporal profile of NADPH-diaphorase staining during postischemic period, sections were obtained from animals that were perfuse fixed at 12 hours, 24 hours, 48 hours, 72 hours, and 7 days after ischemia. The sections were then incubated for 1 hour at 37° C. with a solution containing 1 mg/ml of NADPH, 0.25 mg/ml of nitro blue tetrazolium (“NBT”), and 0.3% Triton X-100 in 0.1 M PB. The reaction was terminated by the addition of cold 0.1M PB. […]
After the treatment, 200 μl aliquots of cell supernatant from each well were mixed with 100 μl of Griess reagent (1 % sulphanilamide, 0.1% naphthylethylenediamine dihydrochloride, 2.5% H3PO4) in 96 well microtiter plates. The mixtures were incubated for 10 minutes to form a chromophore and the absorbance was read at 540 nm using a plate reader. The amount of nitrite accumulation from media was determined against a standard curve generated by a known concentration of NaNO3. […]

CA1 hippocampal neurons [5] = details: Cho et al. 1997, cited from earlier work
[6] = background statement; cited from earlier work

Effect on body temperature versus saline-treated ischemic group ([2]; 10 mg/kg triple i.p., any time point up to 4 hours of reperfusion, ANOVA, Newman-Keuls): no differences in body temperatures
Temperature recording during cerebral reperfusion ([2]; NC-111 (0, 0.5, 2 h), n = 9, postischemic time 1 hour): 37.6 ± 0.2
Temperature recording during cerebral reperfusion ([2]; NC-111 (0, 0.5, 2 h), n = 9, postischemic time 1.5 hour): 37.3 ± 0.1
Temperature recording during cerebral reperfusion ([2]; NC-111 (0, 0.5, 2 h), n = 9, postischemic time 2 hour): 37.3 ± 0.1
Temperature recording during cerebral reperfusion ([2]; NC-111 (0, 0.5, 2 h), n = 9, postischemic time 3 hour): 37.5 ± 0.2
Temperature recording during cerebral reperfusion ([2]; NC-111 (0, 0.5, 2 h), n = 9, postischemic time 4 hour): 37.2 ± 0.1
Temperature recording during cerebral reperfusion ([2]; NC-111 (1 h) group (injections at 1, 1.5, 3 h), n = 7, postischemic time 0.5 hour): 37.9 ± 0.2
Temperature recording during cerebral reperfusion ([2]; NC-111 (1 h) group, n = 7, postischemic time 1 hour): 36.9 ± 0.1
Temperature recording during cerebral reperfusion ([2]; NC-111 (1 h) group, n = 7, postischemic time 1.5 hour): 37.0 ± 0.1
Temperature recording during cerebral reperfusion ([2]; NC-111 (1 h) group, n = 7, postischemic time 2 hour): 37.4 ± 0.1
Temperature recording during cerebral reperfusion ([2]; NC-111 (1 h) group, n = 7, postischemic time 3 hour): 37.5 ± 0.2
Temperature recording during cerebral reperfusion ([2]; NC-111 (1 h) group, n = 7, postischemic time 4 hour): 37.5 ± 0.3
Temperature recording during cerebral reperfusion ([2]; NC-111 (2 hr) group (injections at 2, 2.5, 4 h), n = 6, postischemic time 0.5 hour): 38.3 ± 0.2
Temperature recording during cerebral reperfusion ([2]; NC-111 (2 hr) group, n = 6, postischemic time 1 hour): 36.8 ± 0.3
Temperature recording during cerebral reperfusion ([2]; NC-111 (2 hr) group, n = 6, postischemic time 1.5 hour): 37.2 ± 0.4
Temperature recording during cerebral reperfusion ([2]; NC-111 (2 hr) group, n = 6, postischemic time 2 hour): 37.4 ± 0.2
Temperature recording during cerebral reperfusion ([2]; NC-111 (2 hr) group, n = 6, postischemic time 3 hour): 37.3 ± 0.2
Temperature recording during cerebral reperfusion ([2]; NC-111 (2 hr) group, n = 6, postischemic time 4 hour): 37.9 ± 0.3
Temperature recording during cerebral reperfusion ([2]; NC-111 (injections at 0, 0.5, 2 h of reperfusion), n = 9, postischemic time 0.5 hour): 37.7 ± 0.2
SMILES: COc1cc(CCNC(C)=O)ccc1O [NAMDA, N-acetyl-3-O-methyldopamine]
CA1 neuronal density / protection of CA1 neurons (of non-ischemic control) (CA1 hippocampal neurons [1]; 10 min 4-VO ischemia, 10 mg/kg i.p. at 0, 0.5, 2 h (immediately after reperfusion), measured one week later): 45%
Protection of neurons in CA1 hippocampus (CA1 hippocampal neurons [1]; 10 min 4-VO ischemia, NAMDA treatment versus saline, one week later, Fisher's PLSD p<0.0001): significantly protected neurons in CA1 hippocampus
Neuron density in CA1 at 24 hours postischemic (CA1 hippocampal neurons [1]; 10 min ischemia, NAMDA-ischemic n=3, 24 hours postischemic): 18.3±2.2 neurons/10^5 μm^3
Protection of CA1 neurons with delayed administration (CA1 hippocampal neurons [1]; administration delayed up to 2 hours after ischemia, one week later): protect CA1 neurons despite delaying the treatment up to 2 hours; also recorded: significant protection of CA1 neurons
Ischemia-induced NADPH-diaphorase staining in CA1 ([3]; 24 hours postischemic): markedly reduced
Ischemia-induced NADPH-diaphorase staining in CA1 ([3]; 48 hours after ischemia): attenuation of the staining was persisted
Nitrite accumulation in cell supernatant (BV-2 microglia cells; absence of LPS): did not alter nitrite accumulation
Nitrite accumulation in cell supernatant (BV-2 microglia cells; presence of LPS 0.2 μg/ml, ANOVA p<0.001): significantly reduced nitrite accumulation in a dose-dependent manner
Total number of cells (cell viability) (BV-2 cells): did not affect the total number of cells
Baseline NADPH-diaphorase staining intensity ([4]; absence of LPS): not affected
LPS-induced NADPH-diaphorase activity (staining) ([4]; presence of LPS): attenuated

SMILES: COc1ccc2[nH]cc(CCNC(C)=O)c2c1 [melatonin, Melatonin]
Protection of CA1 neurons (CA1 hippocampal neurons [5]; administration starting immediately after / during reperfusion, 10 min transient forebrain ischemia): significantly protect CA1 neurons; also recorded: protects the CA1 hippocampal neurons
Protection of CA1 neurons with delayed administration (CA1 hippocampal neurons [5]; delay of one hour): did not offer significant protection
Protection of the neurons with delayed administration (CA1 hippocampal neurons [5]; delay of one to two hours in administration): significantly decreased protection of the neurons
Solubility in aqueous media [6]: insoluble in aqueous media
